Laboratory results from patent US12065456B2, “Boron-containing pharmacophore” (MASSACHUSETTS INSTITUTE OF TECHNOLOGY, priority 2019, dated 2024).
Read-outs that look alike come from different tables or passages of the source.

Tests used:
[1] = Oxidation of boronic acids by hydrogen peroxide, continuous UV-absorbance assay; type: physicochemical; settings: for kmonoanion (rel) / kmonoanion: experimental; for kmonoanion (rel): relative to PBA; for kmonoanion: second-order rate constant for oxidation of monoanionic tetrahedral state; for kobs: second-order rate constant of oxidation by hydrogen peroxide, physiological pH
Description: Hydrogen peroxide is known to be the major reactive oxygen species in humans. The oxidation of phenylboronic acids by aqueous hydrogen peroxide yields a phenol and boric acid. […] The oxidation rates were first-order with respect to hydrogen peroxide and each boronic acid. The ensuing second-order rate constants varied with pH and were half-maximal for PBA and 2-HMPBA when pH=pKa. Oxidation rates increase in a pH-dependent manner after and before a pH-independent regime (FIG. 2). This observation is consistent with the existence of two pH-independent rate constants, k1 and k2. Whereas the oxidation rates of PBA and 2-HMPBA at physiological pH are similar to those for biological thiols, the comparative stability of CPBA to oxidation is unexpected (Table 1).
For PBA, 2-HMPBA, and 2-CPBA, the transition from a neutral trigonal state to a monoanionic tetrahedral state occurs when the pH surpasses the pKa (FIG. 3). […] The oxaborolone is differentiated by its existence as a monoanionic tetrahedral species above pH 1. The second-order rate constants for the oxidation for the monoanionic tetrahedral states of PBA, 2-HMPBA, 2-CPBA, and 2-CMPBA ((2-carboxymethyl)-phenylboronic acid) are listed in Table 2.

[2] = Affinity for saccharides, 1H-NMR titration; type: binding
Description: (§1) PBA and 2-HMPBA are employed often for their ability to form esters with saccharides. As the affinity of boronic acids for saccharides is generally greatest near their pKa value, the low pKa1 of 2-CPBA portends a low affinity. The results of ^1H-NMR titration experiments with D-fructose, D-glucose, and N-acetylneuraminic acid (Neu5Ac) are consistent with this expectation (Table 3).

pig liver esterase (PLE) = target: T1, pig liver esterase (PLE) (Sus scrofa, UniProt Q29550); experiment: Inhibition of pig liver esterase, 4-nitrophenyl acetate substrate; type: biochemical; settings: pH 7.5, substrate 1.0 mM
T1 sequence (Q29550 19-566): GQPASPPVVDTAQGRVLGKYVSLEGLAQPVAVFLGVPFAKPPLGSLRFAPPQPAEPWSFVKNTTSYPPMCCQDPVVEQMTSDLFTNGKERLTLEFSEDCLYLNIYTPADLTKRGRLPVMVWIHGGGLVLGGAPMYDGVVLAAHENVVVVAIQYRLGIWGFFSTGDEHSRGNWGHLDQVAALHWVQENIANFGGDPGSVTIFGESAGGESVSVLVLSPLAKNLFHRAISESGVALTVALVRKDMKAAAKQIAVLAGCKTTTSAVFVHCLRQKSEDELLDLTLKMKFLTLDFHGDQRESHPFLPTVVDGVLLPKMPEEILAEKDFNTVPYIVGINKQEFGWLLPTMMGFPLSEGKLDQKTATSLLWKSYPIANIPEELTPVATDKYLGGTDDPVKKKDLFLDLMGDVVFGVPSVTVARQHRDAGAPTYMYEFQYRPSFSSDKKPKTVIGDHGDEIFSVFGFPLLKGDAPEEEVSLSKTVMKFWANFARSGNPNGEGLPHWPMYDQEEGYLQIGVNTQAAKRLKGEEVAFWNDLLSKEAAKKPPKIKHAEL
Description: (§2) 2-CPBA was tested as an inhibitor of pig liver esterase (PLE). This test used 4-nitrophenyl acetate (PNPA) as a substrate. In addition, 2-CPBA was tested as an inhibitor of calf intestinal phosphatase (CIP). This test used 4-nitrophenyl phosphate. Substrates and PLE (15 units/mg) were obtained from Sigma-Aldrich (St. Louis, MO) as dry powders. CIP was obtained from Promega (Fitchburg, WI) as a solution (1 unit/μL). The hydrolysis of the two chromogenic substrates was monitored with a Tecan M1000 plate reader by measuring the absorbance of the 4-nitrophenol product at a wavelength of 405 nm. Assays were performed in a buffer of 20 mM Tris-HCl buffer, pH 7.5, in a clear, flat bottomed 96-well plate in 200-μL volumes. Solutions for CIP assays contained enzyme (0.003 units/μL) and substrate (1.0 mM). Solutions for PLE assays contained enzyme (0.01 units/mL) and substrate (1.0 mM). Both enzymes were assayed for inhibition by adding 2-CPBA (to a concentration of 0.78-100 mM) from a 250 mM stock solution that had its pH adjusted to that of the assay buffer. Initial velocities were measured by calculating ΔA405 nm over time. Velocities were fitted to the 4-parameter logistic equation with Prism software from GraphPad (San Diego, CA). No enzyme and uninhibited velocities were used to constrain the top and bottom parameters. Values of Ki were 80 mM for CIP and 10 mM for PLE.

[3] = Affinity for saccharides, overall comparison; type: binding
Description: as §1

[4] = target: T2, calf intestinal phosphatase (CIP) (Bos taurus, UniProt P19111); experiment: Inhibition of calf intestinal phosphatase, 4-nitrophenyl phosphate substrate; type: biochemical; settings: pH 7.5, substrate 1.0 mM
T2 construct: purchased Promega (Fitchburg, WI)
Description: as §2

ribonuclease A (RNase A) = target: T3, ribonuclease A (RNase A) (Bos taurus, UniProt P61823); experiment: Inhibition of catalysis by ribonuclease A; type: biochemical; settings: pH 6.0, substrate 6-FAM-(dA)rU(dA)2-6-TAMRA
T3 sequence (P61823 27-150): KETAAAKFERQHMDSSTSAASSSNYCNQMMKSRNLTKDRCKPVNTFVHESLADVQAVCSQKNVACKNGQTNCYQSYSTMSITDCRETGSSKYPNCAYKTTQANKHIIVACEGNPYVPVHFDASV
Description: The catalytic activity of ribonuclease A (RNase A) was assayed using 6-FAM-(dA)rU(dA)2-6-TAMRA as a substrate (Kelemen, B. R.; et al. Nucleic Acids Res. 1999, 27, 3696-3701). Assays were performed in 50 mM MES-NaOH buffer, pH 6.0, containing NaCl (100 mM) and RNase A (1 pM) in 200-μL solutions in a black, flat-bottomed 96-well plate and with a Tecan M1000 plate reader. An aqueous solution of 2-CPBA was prepared by dilution from a 500 mM stock that had its pH adjusted to that of the assay buffer. Initial velocities were measured from <5% turnover. Velocities were fitted to the 4-parameter logistic equation using Prism software from GraphPad. Uninhibited velocities were used to constrain the top parameter.

[5] = oxidation of biological thiols, physiological pH; marked with footnote a; cited from earlier work
Transthyretin (TTR) = target: T4, Transthyretin (TTR) (Homo sapiens, UniProt P02766); experiment: Inhibition of transthyretin fibril formation, light-scattering at 400 nm; type: biochemical; settings: pH 4.4, 96-h incubation at 37° C.
T4 construct: made in house
Description: TTR was expressed and purified as previously reported (Smith, T. P., et al, J. Med. Chem., 2017, 60, 7820-7834). Inhibition of fibril formation was assayed as previously reported (Smith, et al.). Briefly, TTR (7.2 μM) was incubated with varying ratios of kinetic stabilizers (BOL or tafamidis) in 10 mM sodium phosphate buffer, pH 7.6, containing potassium chloride (100 mM) for 30 min at 37° C. Solutions were 2-fold diluted with 100 mM sodium acetate buffer, pH 4.4, containing potassium chloride (100 mM). Quadruplicate samples were plated in a clear 96-well plate. Fibril formation was assessed by measuring light-scattering at 400 nm immediately following acidification and after a 96-h incubation at 37° C. Data were analyzed with equation 1 below by comparing the change in light-scattering over the incubation with a control containing the protein and no inhibitor. The standard deviation of measurements was propagated through calculation in equation 1.

T2 sequence (P19111 20-506): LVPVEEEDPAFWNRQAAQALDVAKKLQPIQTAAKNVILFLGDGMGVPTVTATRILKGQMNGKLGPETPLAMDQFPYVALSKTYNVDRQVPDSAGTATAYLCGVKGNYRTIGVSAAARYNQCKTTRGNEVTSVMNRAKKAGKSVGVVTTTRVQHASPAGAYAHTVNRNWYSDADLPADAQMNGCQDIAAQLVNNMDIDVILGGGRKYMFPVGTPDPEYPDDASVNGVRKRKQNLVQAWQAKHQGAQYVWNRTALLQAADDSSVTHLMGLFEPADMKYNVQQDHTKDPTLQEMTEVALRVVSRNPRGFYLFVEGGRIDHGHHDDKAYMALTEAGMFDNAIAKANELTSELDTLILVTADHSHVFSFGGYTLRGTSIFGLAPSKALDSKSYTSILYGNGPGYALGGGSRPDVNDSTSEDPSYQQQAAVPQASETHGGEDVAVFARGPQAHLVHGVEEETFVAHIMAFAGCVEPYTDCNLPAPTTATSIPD

SMILES	kmonoanion (rel) [1]	kmonoanion [1]	kobs [1]	D-fructose, Ka [2]	D-glucose, Ka [2]	Neu5Ac, Ka [2]	kobs [5]	other results
O=C(O)Cc1ccccc1B(O)O [Compound 2-CMPBA, (2-carboxymethyl)-phenylboronic acid]	0.00088	0.041 M⁻¹ s⁻¹	0.041 M⁻¹ s⁻¹					
O=C(O)c1ccccc1B(O)O [Compound 2-CPBA, 2-carboxyphenylboronic acid]	0.0000035	0.00016 M⁻¹ s⁻¹	0.00015 M⁻¹ s⁻¹	23 ± 2 M⁻¹	1.7 ± 0.1 M⁻¹	6.0 ± 0.5 M⁻¹		Ki (pig liver esterase (PLE)): 10 mM; loss in affinity for saccharides versus 2-HMPBA ([3]; versus 2-HMPBA): about 13 fold; loss in affinity for saccharides versus PBA ([3]; versus PBA): about 4 fold; Ki [4]: 80 mM; IC50 (ribonuclease A (RNase A)): 27 mM
OCc1ccccc1B(O)O [Compound 2-HMPBA, (2-hydroxymethyl)phenylboronic acid]	0.10	4.8 M⁻¹ s⁻¹	2.4 M⁻¹ s⁻¹	336 ± 43 M⁻¹	28 ± 4 M⁻¹	43 ± 5 M⁻¹		
N[C@@H](CS)C(=O)O [Cysteine]							2.9 M⁻¹ s⁻¹	
N[C@@H](CCC(=O)N[C@@H](CS)C(=O)NCC(=O)O)C(=O)O [Glutathione]							0.89 M⁻¹ s⁻¹	
CC(=O)N[C@@H](CS)C(=O)O [N-Acetylcysteine]							0.16 M⁻¹ s⁻¹	
OB(O)c1ccccc1 [PBA, phenylboronic acid]	1	46 M⁻¹ s⁻¹	2.4 M⁻¹ s⁻¹	128 ± 20 M⁻¹	5 ± 1 M⁻¹	13 ± 1 M⁻¹		
O=C(O)c1ccc2nc(-c3cc(Cl)cc(Cl)c3)oc2c1 [tafamidis]								% Fibril formation (Transthyretin (TTR); TTR:Compound ratio 1:1): 29 ± 5%; % Fibril formation (Transthyretin (TTR); TTR:Compound ratio 1:2): 1 ± 5%
